# Test system: HRVc25 replicon
# Test: HRVc25 HeLa replicon EC50
# Format: cell-based
# Details: Human rhinovirus sp., HRV25, H1-HeLa, 48 h, read-out: HRV25 Rep EC50
# Method: First, HRV replicon RNA is prepared. 5 μg of DNA Template (HRVc15 or HRVc25) is linearized with 2 μL of MluI enzyme in NEB buffer-3 in a final volume of 25 μL for 3 hours at 37° C. Following incubation, linearized DNA is purified on a PCR purification column and the following in vitro transcription is performed using the following conditions: 10 μL of RiboMAX Express T7 2× buffer, 1-8 μL of linear DNA template (1 μg), 0-7 μL nuclease free water, 2 μL enzyme mix T7 express. The final volume of 20 μL is mixed and incubated at 37° C. for 30 min. Following incubation, 1 μL of RQ1 RNase free DNase is added and the mixture is incubated at 37° C. for 15 min. The resulting RNA is then purified with the MegaClear Kit (Gibco Life Technologies Cat #11835-030) and is eluted two times with 50 μL of elution buffer at 95° C. […] Replicon activity is then measured by a Renilla-Glo Luciferase Assay system. Prior to signal quantification, plates are removed from incubators and are allowed to equilibrate to 25° C. after 50 uL is removed from each well. […] Plates are then incubated for 20 min at 25° C. under gentle agitation and luciferase signal are determined with a 0.1 second detection setting using an EnVision luciferase quantification reader.
smiles,measurement,value
"C[C@H](N[P@](=O)(OC[C@@]1(C#N)O[C@@H](c2ccc3c(N)ncnn23)[C@H](O)[C@@H]1O)Oc1ccccc1)C(=O)OC1CCCCC1 [Formula I, cyclohexyl ((S)-(((2R,3S,4R,5S)-5-(4-aminopyrrolo[2,1-f][1,2,4]triazin-7-yl)-2-cyano-3,4-dihydroxytetrahydrofuran-2-yl)methoxy)(phenoxy)phosphoryl)-L-alaninate]",EC50,7 nM

# Reference: patent publication US20250034186A1, “ANTIVIRAL COMPOUNDS” (priority 2020, published 2025)
